Data reported in PMC2738925 (Transplantation, 2009).

Molecular target: T1, mouse CXCR3 (Mus musculus, UniProt O88410)
T1 sequence (O88410 1-367): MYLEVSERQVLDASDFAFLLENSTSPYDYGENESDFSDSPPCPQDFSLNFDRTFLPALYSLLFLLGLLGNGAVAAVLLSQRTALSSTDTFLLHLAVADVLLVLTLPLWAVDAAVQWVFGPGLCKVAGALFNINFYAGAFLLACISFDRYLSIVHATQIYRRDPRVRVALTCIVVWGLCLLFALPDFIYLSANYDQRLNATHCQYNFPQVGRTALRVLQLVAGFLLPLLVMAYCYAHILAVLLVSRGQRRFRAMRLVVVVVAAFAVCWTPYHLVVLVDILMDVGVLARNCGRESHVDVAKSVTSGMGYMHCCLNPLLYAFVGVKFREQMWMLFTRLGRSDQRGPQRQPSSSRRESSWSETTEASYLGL
Test: […]-CXCL10 radioligand displacement on HEK […] cells transfected with mouse CXCR3
Format: cell-based

IC50: 53 ± 7 nM
Substance: AMG1237845
